A short description of series [1]: Exploratory trial: plasma concentration of rikkunshito ingredients after single oral rikkunshito 7.5 g. It is filed as in vivo. Put shortly: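 Healthy volunteers took a single oral rikkunshito dose of 7.5 g. Heparinized forearm blood was drawn at 0, 0.5, 1, 2, 4 and 8 h, with urine pooled pre-dose, 0–4 h and 4–8 h. Analytes were quantified in plasma by LC–MS/MS with internal standards, after solid-phase extraction and, where applied, 2 h β-glucuronidase treatment at 37°C.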

A short description of series [2]: Formation of ingredients derived from rikkunshito in formulation, blood, and urine (S11 Table summary). To be noted: after rikkunshito administration, per ingredient in the formulation; for Formation of ingredients: form found in Urine: BQL = below the quantification limit.
Another series has as its system ghrelin receptor (GHS-R). As to conditions: cited from earlier work.
A short description of series [3]: Exploratory trial: amount of rikkunshito ingredients in urine. It is filed as in vivo, human. To be noted: mean ± S.D., n = 4; for Amount in urine, 0–4 h: 0–4 h after single oral rikkunshito 7.5 g; for Amount in urine, 4–8 h: 4–8 h after single oral rikkunshito 7.5 g; for Amount in urine, Pre: preadministration (between dinner and bedtime). A digest of the protocol:
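Subjects took single oral 7.5 g rikkunshito; urine collected pre-dose and 0–4 h and 4–8 h post-dose, stored at −80 °C or lower. Synephrine quantified by LC–MS/MS after plate cleanup with erythromycin IS; other ingredients after β-glucuronidase (2 h, 37 °C) and HLB solid-phase extraction.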

Series [4] in a line: Method validation: stability in standard, stock and working solution. To be noted: for Short-term stability of standard solution, RR: at room temperature for 24 h.
Series [5] is described as follows: Exploratory trial: ingredients in β-glucuronidase (enzyme)-treated urine. To be noted: β-glucuronidase-treated, mean ± S.D., n = 4. Type of series: in vivo, human. On the procedure:
In the first exploratory trial, 20-mL blood samples were collected from the cutaneous vein in the subjects’ forearm via a blood sampling tube that contained heparin at 0 (preadministration), 0.5, 1, 2, 4, and 8 h after a single oral administration of rikkunshito (Lot E24652). The dose of rikkunshito used in this trial was 7.5 g/day, which is the clinical daily dose, to widely explore rikkunshito-derived ingredients that enter the blood. Along with plasma, urine samples were collected at three points: between dinner and bedtime (preadministration), between 0 and 4 h after administration, and between 4 and 8 h after administration. The blood was immediately centrifuged at 1700 ×g for 10 min to obtain plasma. Plasma and urine fractions were stored at −80°C or lower until analysis.
For quantification of 30 ingredients other than atractylodin and synephrine, 25 µL of standard solution or methanol was added to 500 µL plasma or urine samples followed by mixing. Atractylenolide III or digoxin (IS) solution (50 μL) was added to the solutions followed by mixing. For urine, 400 µL of blank plasma was added to the solutions. Ammonium acetate solution (100 mM, 100 or 400 µL) was added to the solutions followed by mixing. For enzymatic treatment, plasma and urine samples were incubated with β-glucuronidase (100 units in 100 mM ammonium acetate) for 2 h at 37°C. A solid-phase cartridge (OASIS HLB, 30 mg/1cc, Waters) was conditioned with methanol and 10 mM ammonium acetate solution, and the samples were loaded onto the cartridge. The cartridge was washed water : methanol (9:1, v/v), and 1.5 mL of methanol and 30 µL of propylene glycol were added to the cartridge to elute the analytes. The mixtures were dried at 25°C under a stream of nitrogen gas. Furthermore, 100 μL of 10 mM ammonium acetate : methanol (8:2, v/v) was added to the dried samples followed by mixing and sonication. The solutions were filtered (0.22 µm) and followed by injection into the LC–MS/MS system. […] Those analytical conditions are summarized in S2 Table and S3 Table.

Another series relates to 5-HT2BR. Also noted: method as in PMID 18439428. To be noted: cited from earlier work.
The subject of series [6] is cisplatin-induced anorexia model. To be noted: cited from earlier work.
The next series relates to 5-HT2CR. Also noted: method as in PMID 18439428. To be noted: cited from earlier work.
The nature of series [7]: Exploratory trial: ingredients in β-glucuronidase (enzyme)-treated plasma. Type of series: in vivo, human. To be noted: rikkunshito 7.5 g. A digest of the protocol:
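Healthy subjects took a single oral 7.5 g dose of rikkunshito; heparinised plasma drawn at 0–8 h and urine collected pre-dose, 0–4 h and 4–8 h. Samples incubated with β-glucuronidase (100 units) 2 h at 37°C, solid-phase extracted and quantified by LC–MS/MS.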

The subject of a further series is ghrelin secretion. To be noted: cited from earlier work.
Another series concerns butyrylcholinesterase. As to conditions: cited from earlier work.
[8] abbreviates: 0 h (preadministration), single oral rikkunshito 7.5 g, mean ± S.D., n = 4.
[9] abbreviates: 1 h after single oral rikkunshito 7.5 g, mean ± S.D., n = 4.
The mark [10] stands for this setting: 4 h after single oral rikkunshito 7.5 g, mean ± S.D., n = 4.
[11] abbreviates: 8 h after single oral rikkunshito 7.5 g, mean ± S.D., n = 4.
[12] abbreviates: oral administration at a dose of 4.0 mg/kg.

Like-named read-outs stand apart in the source and are kept apart here.

Consider `C/C=C/C#CC#C/C=C/c1ccco1` [Atractylodin], for which the concentration at 0 h in series [1] (human, in vivo, 0 h (preadministration), single oral rikkunshito 7.5 g, mean ± S.D., n = 4, read-out: Plasma concentration, 0 h) was determined as 0.328 ± 0.655 ng/mL. In series [1] (human, in vivo, 0.5 h after single oral rikkunshito 7.5 g, mean ± S.D., n = 4, read-out: Plasma concentration, 0.5 h), the concentration at 0.5 h stood at 1.19 ± 0.913 ng/mL. In addition, the concentration at 1 h in [1] (human, in vivo, 1 h after single oral rikkunshito 7.5 g, mean ± S.D., n = 4) was 1.38 ± 1.15 ng/mL. Further, in series [1] (human, in vivo, 2 h after single oral rikkunshito 7.5 g, mean ± S.D., n = 4, read-out: Plasma concentration, 2 h), the concentration at 2 h came to 0.863 ± 1.01 ng/mL. Besides, the concentration at 4 h in series [1] (human, in vivo, 4 h after single oral rikkunshito 7.5 g, mean ± S.D., n = 4, read-out: Plasma concentration, 4 h) came out at 1.14 ± 0.899 ng/mL. Moreover, the concentration at 8 h in series [1] (human, in vivo, 8 h after single oral rikkunshito 7.5 g, mean ± S.D., n = 4, read-out: Plasma concentration, 8 h) worked out at 0.295 ± 0.59 ng/mL. Also, the Cmax in series [1] (human, in vivo, rikkunshito 7.5 g, four subjects, highest mean concentration over 0–8 h, read-out: C max in plasma (exploratory trial)) was 1.38 ng/mL. Moreover, in series [2], the “Formation of ingredients: form found in Urine” value is given as “Atractylodin”. Also, the “Known pharmacology activities: ghrelin signal” value in the series on ghrelin receptor (GHS-R) was “Ghrelin signal enhancement effect [1]”. Also, in series [3], the “Amount in urine, 0–4 h” value is given as 75.8 ± 152 ng; the “Amount in urine, 4–8 h” value was “BQL”; the “Amount in urine, Pre” value was “BQL”. For the same compound, the “Short-term stability of standard solution, RR” value in [4] (atractylodin 1.00 ng/mL) turned out to be 104.6%. Also, the “Short-term stability of standard solution, RR” value in series [4] (atractylodin 5000 ng/mL) came out at 106.7%.
For the compound `O=C(/C=C/c1ccc(O)cc1)c1ccc(O)cc1O` [Isoliquiritigenin], the “Plasma concentration, 0 h” value in series [1] (setting [8]) was “BQL”. The “Plasma concentration, 1 h” value in series [1] (setting [9]) is “BQL”. In series [1] (setting [10]), the “Plasma concentration, 4 h” value is listed as “BQL”. Also, the “Plasma concentration, 8 h” value in [1] (setting [11]) is given as “BQL”. The concentration at 0.5 h was found to be 0.0153 ng/mL in series [1] (human, in vivo, po) and 0.0872 ± 0.0221 ng/mL in [7] (human, plasma, oral, β-glucuronidase-treated, 0.5 h, mean ± S.D., n = 4). In addition, the concentration at 2 h in series [1] (human, in vivo, po) is 0.0171 ± 0.0343 ng/mL; in series [7] (human, plasma, oral, β-glucuronidase-treated, 2 h, mean ± S.D., n = 4, read-out: Plasma concentration in enzyme-treated plasma, 2 h) it was 0.0606 ± 0.0774 ng/mL. Moreover, the “Plasma concentration, 0.5 h” value in [1] (human, in vivo, po, 0.5 h) is 0.0153 ± 0.018 ng/mL. The “Amount in enzyme-treated urine, 0–4 h” value in [5] (0–4 h after rikkunshito 7.5 g) was 3060 ± 348 ng. Further, in series [5] (4–8 h after rikkunshito 7.5 g), the “Amount in enzyme-treated urine, 4–8 h” value is recorded as 5630 ± 2210 ng. Further, in [5] (preadministration), the “Amount in enzyme-treated urine, Pre” value was 16.0 ± 17.4 ng. In addition, the 5-HT2BR inhibitory/antagonistic activity result is “inhibits” with 5-HT2BR and “inhibit” in the series on 5-HT2BR (listed as isoliquiritigenin). Moreover, in [6] (setting [12]), the “Appetite following cisplatin administration” value is on record as “improves decreased appetite”. Also, the “Plasma ghrelin concentration following cisplatin administration” value in series [6] (setting [12]) is given as “inhibits a decrease in plasma ghrelin concentration”. Moreover, in series [6] (oral administration, cisplatin-induced anorexia model), the “Acylated ghrelin level in blood” value is “suppressed the decrease of the acylated ghrelin level in blood in a concentration-dependent manner”. Further, the “Amount in urine, 0–4 h” value in series [3] is recorded as 741 ± 393 ng. Further, the “Amount in urine, 4–8 h” value in series [3] was determined as 1010 ± 451 ng. The “Amount in urine, Pre” value in [3] was found to be 0.688 ± 1.38 ng. Further, the “Working solution stability, RR” value in [4] (0.02 ng/mL, refrigerator (1°C to 8°C) for 53 days) was found to be 89.9%; in [4] (0.02 ng/mL, refrigerator (1°C to 8°C) for 128 days), 108.2%; in [4] (2 ng/mL, refrigerator (1°C to 8°C) for 53 days) it was 92.7%; in series [4] (2 ng/mL, refrigerator (1°C to 8°C) for 128 days), 102.2%. Besides, the “Stock solution stability, RR” value is 54 days: 96.9% in [4] (0.1 mg/mL, refrigerator (1°C to 8°C) for 54 days) and 129 days: 96.9% in series [4] (0.1 mg/mL, refrigerator (1°C to 8°C) for 129 days). For the same compound, the 5-HT2CR inhibitory activity result is on record as “inhibits” in the series with 5-HT2CR and “inhibit” in the series on 5-HT2CR (listed as isoliquiritigenin). The Cmax in series [7] (human, oral, β-glucuronidase-treated plasma, four subjects, read-out: C max in enzyme-treated plasma) stood at 0.0872 ng/mL. Besides, in series [7] (human, plasma, oral, β-glucuronidase-treated, 1 h, mean ± S.D., n = 4), the concentration at 1 h amounted to 0.0555 ± 0.0187 ng/mL. Besides, the concentration at 4 h in [7] (human, plasma, oral, β-glucuronidase-treated, 4 h, mean ± S.D., n = 4, read-out: Plasma concentration in enzyme-treated plasma, 4 h) turned out to be 0.0698 ± 0.0335 ng/mL. Further, the concentration at 8 h in series [7] (human, plasma, oral, β-glucuronidase-treated, 8 h, mean ± S.D., n = 4, read-out: Plasma concentration in enzyme-treated plasma, 8 h) is 0.0238 ± 0.0354 ng/mL. For the same compound, the “Plasma concentration in enzyme-treated plasma, 0 h” value in series [7] (β-glucuronidase-treated, 0 h (preadministration), mean ± S.D., n = 4) is “BQL”. Also, in the series on ghrelin secretion, the “Known pharmacology activities: ghrelin secretion” value is “Ghrelin secretion promoting activity [14, 15]”.
Regarding `C=C(CC[C@@H](C(=O)O)[C@H]1[C@H](O)C[C@@]2(C)C3=C(CC[C@]12C)[C@@]1(C)CC[C@H](OC(C)=O)C(C)(C)[C@@H]1CC3)C(C)C` [Pachymic acid], the “Plasma concentration, 0 h” value in series [1] (setting [8]) was 0.14 ± 0.184 ng/mL. Besides, the “Plasma concentration, 0.5 h” value in series [1] (0.5 h after single oral rikkunshito 7.5 g, mean ± S.D., n = 4) worked out at 0.126 ± 0.185 ng/mL. In [1] (setting [9]), the “Plasma concentration, 1 h” value came out at 0.127 ± 0.178 ng/mL. Further, the “Plasma concentration, 2 h” value in series [1] (2 h after single oral rikkunshito 7.5 g, mean ± S.D., n = 4) came to 0.205 ± 0.0765 ng/mL. Moreover, the “Plasma concentration, 4 h” value in series [1] (setting [10]) was 0.0905 ± 0.181 ng/mL. For the same compound, the “Plasma concentration, 8 h” value in series [1] (setting [11]) was determined as 0.103 ± 0.129 ng/mL. Moreover, the “Formation of ingredients: form found in Blood” value in series [2] is “Pachymic acid”. Moreover, the “Formation of ingredients: form found in Urine” value in series [2] is reported as “BQL”. The Butyrylcholinesterase inhibition entry with butyrylcholinesterase is “inhibit butyrylcholinesterase”. Also, the “Known pharmacology activities: ghrelin metabolizing enzyme” value in the series with butyrylcholinesterase is “Ghrelin metabolizing enzyme inhibitory effect [17]”. The “Working solution stability, RR” value is given as 101.1% in [4] (refrigerator 53 days, higher concentration (pachymic acid 10, heptamethoxyflavone 4, naringenin 50 ng/mL)); 109.1% in [4] (refrigerator 53 days, lower concentration (pachymic acid 0.1, heptamethoxyflavone 0.04, naringenin 0.5 ng/mL)); 113.2% in series [4] (refrigerator 128 days, higher concentration (10 / 4 / 50 ng/mL)); 102.1% in series [4] (refrigerator 128 days, lower concentration (0.1 / 0.04 / 0.5 ng/mL)). Moreover, the “Stock solution stability, RR” value is 54 days: 101.7% in series [4] (refrigerator (1°C to 8°C) 54 days, 0.1 mg/mL (naringenin 0.5 mg/mL)) and 129 days: 110.1% in series [4] (refrigerator (1°C to 8°C) 129 days, 0.1 mg/mL (naringenin 0.5 mg/mL)).

The record behind these values is PMC4506051, “Pharmacokinetic Profiles of Active Ingredients and Its Metabolites Derived from Rikkunshito, a Ghrelin Enhancer, in Healthy Japanese Volunteers: A Cross-Over, Randomized Study” (PLoS ONE, 2015).
